Reference: ChEMBL document CHEMBL5252536, “Discovery of VU0467485/AZ13713945: An M4 PAM Evaluated as a Preclinical Candidate for the Treatment of Schizophrenia” (ACS Med Chem Lett, 2017)

Assays:
Rattus norvegicus [1] = assay: Antipsychotic activity in amphetamine-induced hyperlocomotion activity in rat assessed as minimum effective dose at 1 administered orally preincubated for 30 mins followed by amphetamine addition and measured after 60 mins by open field test; format: functional; conditions: 1.5 h, route po, time 90 min, read-out: MED
Cytochrome P450 2C9 [2] = target: T1, Cytochrome P450 2C9 (Homo sapiens, UniProt P11712); assay: Inhibition of CYP2C9 in human liver microsomes using diclofenac as substrate incubated for 15 mins in presence of NADPH by LC/MS/MS analysis; format: ADME, Microsome
T1 sequence (P11712 whole entry): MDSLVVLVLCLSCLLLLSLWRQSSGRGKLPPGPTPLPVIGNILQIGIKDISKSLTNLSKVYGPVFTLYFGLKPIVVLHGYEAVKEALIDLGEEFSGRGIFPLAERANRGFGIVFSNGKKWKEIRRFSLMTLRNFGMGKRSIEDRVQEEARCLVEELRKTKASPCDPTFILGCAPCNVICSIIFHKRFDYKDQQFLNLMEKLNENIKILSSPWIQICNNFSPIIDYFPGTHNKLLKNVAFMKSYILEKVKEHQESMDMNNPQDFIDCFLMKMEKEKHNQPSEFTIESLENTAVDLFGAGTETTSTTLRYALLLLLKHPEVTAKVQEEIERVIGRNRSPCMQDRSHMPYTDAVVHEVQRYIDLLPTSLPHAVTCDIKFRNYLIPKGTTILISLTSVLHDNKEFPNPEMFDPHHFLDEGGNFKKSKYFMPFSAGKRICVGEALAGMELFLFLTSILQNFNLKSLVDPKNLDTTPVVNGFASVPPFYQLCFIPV

[3] = Terminal plasma concentration in rat model of amphetamine-induced hyperlocomotion activity at 1 to 10 mg/kg, po measured after 1.5 hrs; format: ADME, organism-based; conditions: dose 1-10 mg/kg
[4] = Plasma protein binding in rat assessed as unbound fraction incubated for 4 hrs by LC/MS/MS analysis; format: ADME, cell-free
Cytochrome P450 2D6 = Cytochrome P450 2D6 (Homo sapiens, UniProt P10635); assay: […] of human CYP2D6 mediated drug metabolism incubated for 5 mins followed by NADPH addition measured after 1 hr by LC-UV/MS analysis relative to control; format: ADME; conditions: recombinant enzyme, 1.083 h, time 65 min
Cytochrome P450 2D6, sequence (P10635 whole entry): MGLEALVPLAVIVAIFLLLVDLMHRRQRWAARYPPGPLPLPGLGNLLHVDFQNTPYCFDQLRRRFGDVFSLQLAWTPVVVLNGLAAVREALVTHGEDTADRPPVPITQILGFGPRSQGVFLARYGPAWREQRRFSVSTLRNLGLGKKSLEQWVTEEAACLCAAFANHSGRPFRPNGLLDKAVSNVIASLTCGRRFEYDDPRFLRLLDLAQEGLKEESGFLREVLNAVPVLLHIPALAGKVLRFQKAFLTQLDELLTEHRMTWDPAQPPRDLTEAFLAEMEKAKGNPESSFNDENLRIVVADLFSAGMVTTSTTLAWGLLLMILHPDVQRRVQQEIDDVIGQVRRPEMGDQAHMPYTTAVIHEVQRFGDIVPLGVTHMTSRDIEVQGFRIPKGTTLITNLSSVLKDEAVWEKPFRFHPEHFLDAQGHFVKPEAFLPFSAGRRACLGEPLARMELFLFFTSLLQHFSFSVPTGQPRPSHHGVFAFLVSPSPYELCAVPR

[5] = target: T2, Muscarinic acetylcholine receptor M2 (Rattus norvegicus, UniProt P10980); assay: Positive allosteric modulator activity at rat M2 receptor expressed in CHO cells co-expressing Gqi5 assessed as maximal response to ACh by calcium mobilization assay; format: cell-based
T2 sequence (P10980 whole entry): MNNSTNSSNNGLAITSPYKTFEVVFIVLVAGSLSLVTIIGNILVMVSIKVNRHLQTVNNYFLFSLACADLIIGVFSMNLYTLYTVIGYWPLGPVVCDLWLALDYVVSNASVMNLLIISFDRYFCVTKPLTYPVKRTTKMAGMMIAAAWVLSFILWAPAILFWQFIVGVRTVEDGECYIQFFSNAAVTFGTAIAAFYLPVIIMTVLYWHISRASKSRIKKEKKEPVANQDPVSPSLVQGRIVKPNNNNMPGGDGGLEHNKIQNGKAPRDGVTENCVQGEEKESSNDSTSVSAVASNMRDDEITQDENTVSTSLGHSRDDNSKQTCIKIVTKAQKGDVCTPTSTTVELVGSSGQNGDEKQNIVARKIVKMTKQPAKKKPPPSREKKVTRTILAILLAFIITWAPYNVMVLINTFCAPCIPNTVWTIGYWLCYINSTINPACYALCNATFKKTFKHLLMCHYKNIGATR

[6] = Cmax in Sprague-Dawley rat at 3 mg/kg,po by LC-MS/MS analysis; format: ADME, organism-based; parameters: dose 3 mg/kg, route po; conditions: in vivo
[7] = target: T3, Muscarinic acetylcholine receptor M2 (Homo sapiens, UniProt P08172); assay: Positive allosteric modulator activity at human M2 receptor expressed in CHO cells co-expressing Gqi5 assessed as maximal response to ACh by calcium mobilization assay; format: cell-based
T3 sequence (P08172 whole entry): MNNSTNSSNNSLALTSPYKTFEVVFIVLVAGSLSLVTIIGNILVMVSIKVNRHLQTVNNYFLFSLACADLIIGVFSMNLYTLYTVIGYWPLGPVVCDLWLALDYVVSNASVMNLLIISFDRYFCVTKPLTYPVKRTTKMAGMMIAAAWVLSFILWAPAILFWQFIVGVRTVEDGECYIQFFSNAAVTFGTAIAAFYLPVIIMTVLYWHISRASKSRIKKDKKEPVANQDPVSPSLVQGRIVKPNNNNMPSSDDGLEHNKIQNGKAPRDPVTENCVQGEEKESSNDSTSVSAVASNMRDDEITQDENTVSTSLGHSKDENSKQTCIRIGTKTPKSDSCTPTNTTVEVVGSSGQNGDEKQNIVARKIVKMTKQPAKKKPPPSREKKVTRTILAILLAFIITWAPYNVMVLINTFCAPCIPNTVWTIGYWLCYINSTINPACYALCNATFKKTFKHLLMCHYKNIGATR

[8] = Positive allosteric modulator activity at cynomolgus monkey M2 receptor expressed in CHO cells co-expressing Gqi5 in presence of EC20 concentration of acetylcholine by calcium mobilization assay; format: cell-based; conditions: Macaca fascicularis
[9] = target: Voltage-gated inwardly rectifying potassium channel KCNH2 (Homo sapiens, UniProt Q12809); assay: Inhibition of hERG cardiac ion channel; format: toxicity
Voltage-gated inwardly rectifying potassium channel KCNH2, sequence (Q12809 whole entry): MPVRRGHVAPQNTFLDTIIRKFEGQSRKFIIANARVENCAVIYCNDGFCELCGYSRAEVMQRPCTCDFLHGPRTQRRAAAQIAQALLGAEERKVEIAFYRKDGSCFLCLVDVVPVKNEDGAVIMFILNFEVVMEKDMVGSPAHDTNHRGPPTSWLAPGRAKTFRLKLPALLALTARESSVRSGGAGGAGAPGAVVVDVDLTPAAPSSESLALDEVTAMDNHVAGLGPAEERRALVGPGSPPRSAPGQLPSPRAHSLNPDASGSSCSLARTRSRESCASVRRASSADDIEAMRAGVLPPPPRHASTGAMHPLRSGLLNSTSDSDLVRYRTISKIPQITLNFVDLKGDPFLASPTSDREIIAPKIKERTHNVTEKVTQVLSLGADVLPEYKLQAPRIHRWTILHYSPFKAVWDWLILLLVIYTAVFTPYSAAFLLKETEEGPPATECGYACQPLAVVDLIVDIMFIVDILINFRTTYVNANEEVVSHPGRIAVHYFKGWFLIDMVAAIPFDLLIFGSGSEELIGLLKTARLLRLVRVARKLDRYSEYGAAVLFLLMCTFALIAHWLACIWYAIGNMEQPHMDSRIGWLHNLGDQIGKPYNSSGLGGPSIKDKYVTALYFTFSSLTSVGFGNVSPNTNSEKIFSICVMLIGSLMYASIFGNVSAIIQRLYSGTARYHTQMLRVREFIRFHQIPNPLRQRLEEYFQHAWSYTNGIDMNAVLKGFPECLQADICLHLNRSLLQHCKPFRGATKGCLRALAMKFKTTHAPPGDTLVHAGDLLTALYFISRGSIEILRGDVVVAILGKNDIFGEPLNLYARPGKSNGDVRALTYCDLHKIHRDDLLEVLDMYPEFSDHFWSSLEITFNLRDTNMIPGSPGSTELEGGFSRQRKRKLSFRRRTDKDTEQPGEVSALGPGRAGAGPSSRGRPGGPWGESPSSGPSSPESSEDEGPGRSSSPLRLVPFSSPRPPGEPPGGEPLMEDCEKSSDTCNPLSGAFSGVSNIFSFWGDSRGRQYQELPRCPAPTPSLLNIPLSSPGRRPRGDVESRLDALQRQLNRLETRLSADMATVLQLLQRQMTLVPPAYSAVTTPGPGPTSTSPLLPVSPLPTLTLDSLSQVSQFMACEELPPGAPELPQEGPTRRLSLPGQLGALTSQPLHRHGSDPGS

[10] = AUC (0 to infinity) in Sprague-Dawley rat at 3 mg/kg,po by LC-MS/MS analysis; format: ADME, organism-based; parameters: dose 3 mg/kg, route po; conditions: in vivo
[11] = Ratio of drug concentration in Beagle dog brain to plasma at 3 mg/kg, po by LC-MS/MS analysis; format: ADME, organism-based, Canis lupus familiaris; conditions: read-out: BPR
[12] = Genotoxicity in Salmonella typhimurium TA98 by Ames test; format: toxicity; conditions: salmonella enterica subsp. enterica serovar typhimurium
[13] = Plasma protein binding in human assessed as unbound fraction incubated for 4 hrs by LC/MS/MS analysis; format: ADME, cell-free
[14] = Ratio of unbound drug concentration in Beagle dog brain to plasma at 3 mg/kg, po by LC-MS/MS analysis; format: ADME, organism-based, Canis lupus familiaris; conditions: read-out: K(p,uu,brain)
Rattus norvegicus [15] = assay: Reversal of MK-801-induced hyperlocomotion activity in rat at 10 to 30 mg/kg,po preincubated for 30 mins followed by MK-801 addition and measured after 60 mins by open field test relative to control; format: functional; conditions: dose 10-30 mg/kg, time 90 min, 1.5 h
[16] = Terminal unbound plasma concentration in rat model of amphetamine-induced hyperlocomotion activity at 1 to 10 mg/kg, po measured after 1.5 hrs; format: ADME, organism-based; conditions: in vivo, dose 1-10 mg/kg
Cytochrome P450 2C9 [17] = target: T1, Cytochrome P450 2C9; assay: […] of human CYP2C9 mediated drug metabolism incubated for 5 mins followed by NADPH addition measured after 1 hr by LC-UV/MS analysis relative to control; format: ADME; conditions: recombinant enzyme, 1.083 h, time 65 min
[18] = Plasma protein binding in cynomolgus monkey assessed as unbound fraction incubated for 4 hrs by LC/MS/MS analysis; format: ADME, cell-free, Macaca fascicularis
CHO = assay: Positive allosteric modulator activity at dog M4 receptor expressed in CHO cells co-expressing Gqi5 assessed as maximal response to ACh by calcium mobilization assay relative to contol; format: cell-based; conditions: Canis lupus familiaris, filed as positive allosteric modulator
[19] = Oral bioavailability in Beagle dog at 3 mg/kg by LC-MS/MS analysis; format: ADME, organism-based, Canis lupus familiaris; conditions: in vivo
Cytochrome P450 3A4 = Cytochrome P450 3A4 (Homo sapiens, UniProt P08684); assay: Inhibition of CYP34A in human liver microsomes using midazolam as substrate incubated for 15 mins in presence of NADPH by LC/MS/MS analysis; format: ADME, Microsome
Cytochrome P450 3A4, sequence (P08684 whole entry): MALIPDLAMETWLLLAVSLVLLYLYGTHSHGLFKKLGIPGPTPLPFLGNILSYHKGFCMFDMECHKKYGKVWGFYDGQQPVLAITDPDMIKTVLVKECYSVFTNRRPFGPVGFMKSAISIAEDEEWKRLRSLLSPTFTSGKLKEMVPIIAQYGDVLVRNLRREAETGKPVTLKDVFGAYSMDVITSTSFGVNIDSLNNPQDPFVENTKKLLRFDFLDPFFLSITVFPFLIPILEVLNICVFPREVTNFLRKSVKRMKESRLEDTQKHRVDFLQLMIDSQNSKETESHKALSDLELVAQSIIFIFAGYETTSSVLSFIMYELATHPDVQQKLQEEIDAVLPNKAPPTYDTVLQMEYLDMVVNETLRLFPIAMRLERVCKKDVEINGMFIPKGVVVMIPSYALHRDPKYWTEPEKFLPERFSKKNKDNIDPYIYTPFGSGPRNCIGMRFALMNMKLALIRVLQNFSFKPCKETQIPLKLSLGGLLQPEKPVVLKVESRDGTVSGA

## COc1ccc(CNC(=O)c2sc3nnc(C)c(C)c3c2N)cc1F
Rattus norvegicus [1]
  minimal effective dose: 10 mg/kg
Cytochrome P450 2C9 [2]
  IC50: > 30 µM
[3]
  concentration at 1.5 h: 1800 nM
[4]
  fraction unbound at 4 h: 0.031
Cytochrome P450 2D6
  Activity: 0.2%
[5]
  EC50: > 30 µM
[6]
  Cmax: 1200 nM
[7]
  EC50: > 30 µM
[8]
  EC50: > 30 µM
[9]
  IC50: > 33 µM
[10]
  AUC(0-inf): 3.8 µM·h
[11]
  Kp: 1
[12]
  Activity: Non-Toxic
[13]
  fraction unbound at 4 h: 0.054
[14]
  Kp uu: 0.84
Rattus norvegicus [15]
  Activity: 41.1%
[16]
  Cp(f): 60 nM
Cytochrome P450 2C9 [17]
  Activity: 3.5%
[18]
  fraction unbound at 4 h: 0.091
CHO
  Activity: 49%
[19]
  bioavailability: 9.5%
Cytochrome P450 3A4
  IC50: > 30 µM
